Tested on: 616215-338-R-J1-PDC spheroids with HUVEC/MSC, viability
Test: Anticancer human tumor 616215-338-R-J1-PDC patient-derived colon adenocarcinoma cell line growth inhibition [PI3K]
Settings: for viability, T/C: stronger effect = lower value
In short: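 Spheroid viability read-out. Co-cultures contained the tumor line plus HUVEC and human MSCs. Each agent was paired with a PI3K inhibitor (inavolisib, alpelisib, duvelisib, copanlisib) across half-log dilutions starting at clinical Cmax, or at 10 microM when Cmax was unknown.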

[1] = curve of first compound, second compound 0.0316 µM
[2] = curve of first compound, second compound 0.1 µM
[3] = curve of first compound, second compound 0.316 µM
[4] = curve of first compound, second compound 1 µM
[5] = curve of first compound, second compound 3.16 µM
[6] = curve of first compound, second compound 10 µM
[7] = second compound 0.0316 µM, first compound 0.0316 µM
[8] = second compound 0.0316 µM, first compound 0.1 µM
[9] = second compound 0.1 µM, first compound 0.0316 µM
[10] = second compound 0.1 µM, first compound 0.1 µM
[11] = second compound 0.316 µM, first compound 0.0316 µM
[12] = second compound 0.316 µM, first compound 0.1 µM
[13] = second compound 1 µM, first compound 0.0316 µM
[14] = second compound 1 µM, first compound 0.1 µM
[15] = second compound 3.16 µM, first compound 0.0316 µM
[16] = second compound 3.16 µM, first compound 0.1 µM
[17] = second compound 10 µM, first compound 0.0316 µM
[18] = second compound 10 µM, first compound 0.1 µM
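Also: spheroids exposed to agents for seven days before the viability read.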

SMILES: Cn1ncnc1[C@H]1c2n[nH]c(=O)c3cc(F)cc(c23)N[C@@H]1c1ccc(F)cc1 + Cc1nc(NC(=O)N2CCCC2C(N)=O)sc1-c1ccnc(C(C)(C)C(F)(F)F)c1
- IC50 [1]: > 0.1 µM
- IC50 [2]: > 0.1 µM
- IC50 [3]: > 0.1 µM
- IC50 [4]: > 0.1 µM
- IC50 [5]: > 0.1 µM
- IC50 [6]: > 0.1 µM
- viability, T/C (second compound 0.0316 µM, first compound 0.000316 µM): 95.2%
- viability, T/C (second compound 0.0316 µM, first compound 0.001 µM): 88.9%
- viability, T/C (second compound 0.0316 µM, first compound 0.00316 µM): 112%
- viability, T/C (second compound 0.0316 µM, first compound 0.01 µM): 89.3%
- viability, T/C [7]: 109%
- viability, T/C [8]: 99.1%
- viability, T/C (second compound 0.1 µM, first compound 0.000316 µM): 101%
- viability, T/C (second compound 0.1 µM, first compound 0.001 µM): 98.7%
- viability, T/C (second compound 0.1 µM, first compound 0.00316 µM): 97.8%
- viability, T/C (second compound 0.1 µM, first compound 0.01 µM): 97.2%
- viability, T/C [9]: 104%
- viability, T/C [10]: 109%
- viability, T/C (second compound 0.316 µM, first compound 0.000316 µM): 92%
- viability, T/C (second compound 0.316 µM, first compound 0.001 µM): 103%
- viability, T/C (second compound 0.316 µM, first compound 0.00316 µM): 89.6%
- viability, T/C (second compound 0.316 µM, first compound 0.01 µM): 104%
- viability, T/C [11]: 99.9%
- viability, T/C [12]: 90%
- viability, T/C (second compound 1 µM, first compound 0.000316 µM): 107%
- viability, T/C (second compound 1 µM, first compound 0.001 µM): 103%
- viability, T/C (second compound 1 µM, first compound 0.00316 µM): 94.5%
- viability, T/C (second compound 1 µM, first compound 0.01 µM): 93.4%
- viability, T/C [13]: 90.2%
- viability, T/C [14]: 93.5%
- viability, T/C (second compound 3.16 µM, first compound 0.000316 µM): 103%
- viability, T/C (second compound 3.16 µM, first compound 0.001 µM): 94.6%
- viability, T/C (second compound 3.16 µM, first compound 0.00316 µM): 98.5%
- viability, T/C (second compound 3.16 µM, first compound 0.01 µM): 93%
- viability, T/C [15]: 92.5%
- viability, T/C [16]: 87.7%
- viability, T/C (second compound 10 µM, first compound 0.000316 µM): 107%
- viability, T/C (second compound 10 µM, first compound 0.001 µM): 91.3%
- viability, T/C (second compound 10 µM, first compound 0.00316 µM): 85.7%
- viability, T/C (second compound 10 µM, first compound 0.01 µM): 81.3%
- viability, T/C [17]: 81.4%
- viability, T/C [18]: 80.4%

SMILES: CC(Cn1ccc(-c2ccc(C#N)c(Cl)c2)n1)NC(=O)c1cc(C(C)O)[nH]n1 (stereo unspecified) + Cc1nc(NC(=O)N2CCCC2C(N)=O)sc1-c1ccnc(C(C)(C)C(F)(F)F)c1
- IC50 [1]: > 10 µM
- IC50 [2]: > 10 µM
- IC50 [3]: > 10 µM
- IC50 [4]: > 10 µM
- IC50 [5]: > 10 µM
- IC50 [6]: > 10 µM
- viability, T/C [7]: 105%
- viability, T/C [8]: 101%
- viability, T/C (second compound 0.0316 µM, first compound 0.316 µM): 114%
- viability, T/C (second compound 0.0316 µM, first compound 1 µM): 97.5%
- viability, T/C (second compound 0.0316 µM, first compound 3.16 µM): 102%
- viability, T/C (second compound 0.0316 µM, first compound 10 µM): 103%
- viability, T/C [9]: 94.3%
- viability, T/C [10]: 89.8%
- viability, T/C (second compound 0.1 µM, first compound 0.316 µM): 98.1%
- viability, T/C (second compound 0.1 µM, first compound 1 µM): 95.7%
- viability, T/C (second compound 0.1 µM, first compound 3.16 µM): 101%
- viability, T/C (second compound 0.1 µM, first compound 10 µM): 97.4%
- viability, T/C [11]: 98.6%
- viability, T/C [12]: 104%
- viability, T/C (second compound 0.316 µM, first compound 0.316 µM): 104%
- viability, T/C (second compound 0.316 µM, first compound 1 µM): 99.7%
- viability, T/C (second compound 0.316 µM, first compound 3.16 µM): 108%
- viability, T/C (second compound 0.316 µM, first compound 10 µM): 95.5%
- viability, T/C [13]: 111%
- viability, T/C [14]: 102%
- viability, T/C (second compound 1 µM, first compound 0.316 µM): 95.4%
- viability, T/C (second compound 1 µM, first compound 1 µM): 102%
- viability, T/C (second compound 1 µM, first compound 3.16 µM): 100%
- viability, T/C (second compound 1 µM, first compound 10 µM): 98.5%
- viability, T/C [15]: 101%
- viability, T/C [16]: 99.5%
- viability, T/C (second compound 3.16 µM, first compound 0.316 µM): 96.7%
- viability, T/C (second compound 3.16 µM, first compound 1 µM): 103%
- viability, T/C (second compound 3.16 µM, first compound 3.16 µM): 96.1%
- viability, T/C (second compound 3.16 µM, first compound 10 µM): 108%
- viability, T/C [17]: 105%
- viability, T/C [18]: 100%
- viability, T/C (second compound 10 µM, first compound 0.316 µM): 90.8%
- viability, T/C (second compound 10 µM, first compound 1 µM): 99.3%
- viability, T/C (second compound 10 µM, first compound 3.16 µM): 95.9%
- viability, T/C (second compound 10 µM, first compound 10 µM): 84.1%

SMILES: COc1c(OCCCN2CCOCC2)ccc2c3n(c(=NC(=O)c4cnc(N)nc4)nc12)CCN3
- viability, T/C (compound 0.00316 µM): 93.2% [middle of 8 runs]
- viability, T/C (compound 0.01 µM): 96.5% [middle of 8 runs]
- viability, T/C (compound 0.0316 µM): 96.2% [middle of 8 runs]
- viability, T/C (compound 0.1 µM): 91.2% [middle of 8 runs]
- viability, T/C (compound 0.316 µM): 45% [middle of 8 runs]
- viability, T/C (compound 1 µM): 26.3% [middle of 8 runs]
- IC50 (compound alone, run of 05/09/2023): 279 nM [middle of 7 runs]

From PubChem BioAssay AID1963978 (Molecular Pharmacology Branch, DTP, NCI, 2024)
